Reference: the NIST ThermoML archive (doi:10.1016/j.jct.2017.08.004)

Assay: molar heat capacity at constant pressure
Details: 101.33 kPa

OC[C@H](O)C(O)[C@@H](O)CO [L-(-)-arabitol]
molar heat capacity at constant pressure [J/K/mol]
Details | Small sample (50 mg) DSC | relaxation calorimetry
244.15 K, Crystal | 168.75 | –
245.15 K, Crystal | 169.35 | –
246.15 K, Crystal | 169.88 | –
247.15 K, Crystal | 170.55 | –
248.15 K, Crystal | 171.06 | –
249.15 K, Crystal | 171.85 | –
250 K, Crystal | – | 173.24
250.15 K, Crystal | 172.59 | –
251.15 K, Crystal | 173.21 | –
251.96 K, Crystal | – | 174.6
252.15 K, Crystal | 173.86 | –
253.15 K, Crystal | 174.57 | –
254.15 K, Crystal | 175.18 | –
255.15 K, Crystal | 176.03 | –
256.15 K, Crystal | 176.9 | –
257.15 K, Crystal | 177.61 | –
258.15 K, Crystal | 178.4 | –
259.15 K, Crystal | 179.26 | –
260 K, Crystal | – | 179.82
260.15 K, Crystal | 180.04 | –
261.15 K, Crystal | 180.97 | –
262.07 K, Crystal | – | 180.97
262.15 K, Crystal | 181.78 | –
263.15 K, Crystal | 182.59 | –
264.15 K, Crystal | 183.52 | –
265.15 K, Crystal | 184.23 | –
266.15 K, Crystal | 184.83 | –
267.15 K, Crystal | 185.69 | –
268.15 K, Crystal | 186.57 | –
269.15 K, Crystal | 187.58 | –
270 K, Crystal | – | 186.56
270.15 K, Crystal | 188.37 | –
271.15 K, Crystal | 189.06 | –
272.13 K, Crystal | – | 188.16
272.15 K, Crystal | 189.78 | –
273.15 K, Crystal | 190.61 | 188.71
274.15 K, Crystal | 191.19 | –
275.15 K, Crystal | 191.83 | –
276.15 K, Crystal | 192.48 | –
277.15 K, Crystal | 193.16 | –
278.15 K, Crystal | 193.84 | –
279.15 K, Crystal | 194.6 | –
280 K, Crystal | – | 193.46
280.15 K, Crystal | 195.16 | –
281.15 K, Crystal | 195.85 | –
282.15 K, Crystal | 196.47 | –
282.16 K, Crystal | – | 194.74
283.15 K, Crystal | 197.03 | –
284.15 K, Crystal | 197.67 | –
285.15 K, Crystal | 198.35 | –
286.15 K, Crystal | 198.9 | –
287.15 K, Crystal | 199.37 | –
288.15 K, Crystal | 200.05 | –
289.15 K, Crystal | 200.75 | –
290 K, Crystal | – | 200.53
290.15 K, Crystal | 201.49 | –
291.15 K, Crystal | 202.11 | –
292.15 K, Crystal | 202.64 | –
292.27 K, Crystal | – | 201.73
293.15 K, Crystal | 203.3 | –
294.15 K, Crystal | 203.94 | –
295.15 K, Crystal | 204.77 | –
296.15 K, Crystal | 205.37 | –
297.15 K, Crystal | 206.12 | –
298.15 K, Crystal | 206.77 | 206.44
299.15 K, Crystal | 207.42 | –
300 K, Crystal | – | 207.8
300.15 K, Crystal | 208.27 | –
301.15 K, Crystal | 209.11 | –
302.15 K, Crystal | 209.85 | –
302.3 K, Crystal | – | 209.95
303.15 K, Crystal | 210.71 | –
304.15 K, Crystal | 211.4 | –
305 K, Crystal | 212.36 | –
305.15 K, Crystal | 212.38 | –
306.15 K, Crystal | 213.15 | –
307.15 K, Crystal | 214.11 | –
308.15 K, Crystal | 215.16 | –
309.15 K, Crystal | 216.11 | –
310 K, Crystal | 217.12 | –
310.15 K, Crystal | 217.05 | –
311.15 K, Crystal | 218.22 | –
312.15 K, Crystal | 219.18 | –
313.15 K, Crystal | 220.1 | –
314.15 K, Crystal | 221.04 | –
315 K, Crystal | 221.96 | –
315.15 K, Crystal | 222.13 | –
316.15 K, Crystal | 223.18 | –
317.15 K, Crystal | 224.21 | –
318.15 K, Crystal | 225.16 | –
319.15 K, Crystal | 226.14 | –
320 K, Crystal | 226.85 | –
320.15 K, Crystal | 227.12 | –
321.15 K, Crystal | 228.27 | –
322.15 K, Crystal | 229.22 | –
323.15 K, Crystal | 230.47 | –
324.15 K, Crystal | 231.33 | –
325 K, Crystal | 231.9 | –
325.15 K, Crystal | 232.46 | –
326.15 K, Crystal | 233.49 | –
327.15 K, Crystal | 234.58 | –
328.15 K, Crystal | 235.6 | –
329.15 K, Crystal | 236.61 | –
330 K, Crystal | 237.4 | –
330.15 K, Crystal | 237.74 | –
331.15 K, Crystal | 238.74 | –
332.15 K, Crystal | 239.92 | –
333.15 K, Crystal | 241.19 | –
335 K, Crystal | 243.8 | –
340 K, Crystal | 251.69 | –
345 K, Crystal | 261.85 | –
387.05 K, Liquid | 440.32 | –
387.15 K, Liquid | 440.19 | –
388.15 K, Liquid | 440.32 | –
389.15 K, Liquid | 440.39 | –
390 K, Liquid | 440.74 | –
390.15 K, Liquid | 440.65 | –
391.15 K, Liquid | 440.67 | –
392.15 K, Liquid | 440.92 | –
393.15 K, Liquid | 441.37 | –
394.15 K, Liquid | 441.72 | –
395 K, Liquid | 442.06 | –
395.15 K, Liquid | 441.9 | –
396.15 K, Liquid | 442.46 | –
397.15 K, Liquid | 443.18 | –
398.15 K, Liquid | 443.38 | –
399.15 K, Liquid | 443.7 | –
400 K, Liquid | 443.76 | –
400.15 K, Liquid | 444.18 | –
401.15 K, Liquid | 444.55 | –
402.15 K, Liquid | 444.8 | –
403.15 K, Liquid | 445.3 | –
404.15 K, Liquid | 445.48 | –
405 K, Liquid | 445.85 | –
405.15 K, Liquid | 445.82 | –
406.15 K, Liquid | 446.12 | –
407.15 K, Liquid | 446.57 | –
408.15 K, Liquid | 447.22 | –
409.15 K, Liquid | 447.57 | –
410 K, Liquid | 448.32 | –
410.15 K, Liquid | 448.06 | –
411.15 K, Liquid | 448.75 | –
412.15 K, Liquid | 449.48 | –
413.15 K, Liquid | 450.17 | –
414.15 K, Liquid | 450.82 | –
415 K, Liquid | 451.18 | –
415.15 K, Liquid | 451.25 | –
416.15 K, Liquid | 451.74 | –
417.15 K, Liquid | 452.58 | –
418.15 K, Liquid | 453.6 | –
